Measured values from US7517517B2 (Janssen Pharmaceutica N.V., priority 2002, dated 2009).

Key:
rat mGlu1a receptor [1] = molecular target: T1, rat mGlu1a receptor (Rattus norvegicus, UniProt P23385); experiment: Intracellular Ca2+ response in rat mGlu1a receptor expressing CHO-dhfr− cells (FLIPR); format: cell-based; settings: CHO-dhfr− cells expressing rat mGlu1a; glutamate 30 μM; read-out: IC50, inhibition of the glutamate-induced increase in [Ca2+]i
T1 construct: host or cells: CHO-dhfr- cells
T1 sequence (P23385 19-1199): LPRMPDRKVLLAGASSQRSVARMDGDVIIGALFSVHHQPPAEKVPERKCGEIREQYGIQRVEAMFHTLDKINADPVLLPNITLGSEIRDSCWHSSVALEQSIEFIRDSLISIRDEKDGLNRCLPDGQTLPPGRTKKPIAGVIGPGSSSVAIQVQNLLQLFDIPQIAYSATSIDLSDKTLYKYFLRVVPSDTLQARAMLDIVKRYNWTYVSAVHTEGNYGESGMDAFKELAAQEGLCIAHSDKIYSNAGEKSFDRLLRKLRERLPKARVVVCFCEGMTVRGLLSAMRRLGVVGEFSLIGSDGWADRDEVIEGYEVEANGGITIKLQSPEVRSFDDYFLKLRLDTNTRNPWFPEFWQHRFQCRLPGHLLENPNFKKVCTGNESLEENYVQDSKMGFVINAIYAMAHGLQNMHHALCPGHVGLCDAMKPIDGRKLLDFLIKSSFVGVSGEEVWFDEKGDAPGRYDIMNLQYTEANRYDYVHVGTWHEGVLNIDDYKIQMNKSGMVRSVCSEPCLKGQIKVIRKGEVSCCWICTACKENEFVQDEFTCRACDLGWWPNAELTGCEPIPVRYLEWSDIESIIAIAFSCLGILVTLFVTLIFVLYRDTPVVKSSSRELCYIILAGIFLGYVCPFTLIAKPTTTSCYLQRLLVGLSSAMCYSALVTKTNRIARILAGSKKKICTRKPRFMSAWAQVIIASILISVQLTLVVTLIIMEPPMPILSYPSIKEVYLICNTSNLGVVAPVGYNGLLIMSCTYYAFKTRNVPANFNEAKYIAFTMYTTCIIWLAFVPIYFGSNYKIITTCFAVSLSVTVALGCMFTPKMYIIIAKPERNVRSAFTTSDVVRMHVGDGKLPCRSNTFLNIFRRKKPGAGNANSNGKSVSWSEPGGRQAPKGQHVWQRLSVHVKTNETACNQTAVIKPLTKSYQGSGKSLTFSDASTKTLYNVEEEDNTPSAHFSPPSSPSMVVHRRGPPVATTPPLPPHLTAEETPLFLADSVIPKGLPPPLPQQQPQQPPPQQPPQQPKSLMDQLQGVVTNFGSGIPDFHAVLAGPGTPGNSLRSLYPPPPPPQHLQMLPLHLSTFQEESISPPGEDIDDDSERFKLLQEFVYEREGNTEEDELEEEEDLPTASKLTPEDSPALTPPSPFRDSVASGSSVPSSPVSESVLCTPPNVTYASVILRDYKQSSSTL

rat mGlu1a receptor [2] = molecular target: T1, rat mGlu1a receptor; experiment: [3H]Compound A binding to rat mGlu1a receptor CHO-dhfr− membranes (saturation, kinetics, inhibition)
mGlu1 receptor [3] = molecular target: T2, mGlu1 receptor (Rattus norvegicus, UniProt P23385); experiment: [3H]Compound A binding to rat brain membranes (cortex, hippocampus, striatum, cerebellum); settings: 10 μM; 2.5 nM [3H]Compound A (FIG. 9)
Procedure: Tissue preparation. Male Wistar rats (˜200 g) were sacrificed by decapitation. The brains were rapidly removed and cortex, hippocampus, striatum and cerebellum were immediately dissected. The fresh tissue was homogenized with an Ultra Turrax in 20 volumes of 50 mM Tris-HCl, pH 7.4 and tissue was centrifuged at 23,500 g for 10 min. After homogenisation using a DUAL homogeniser, membranes were washed twice by centrifugation at 23,500 g for 10 min. The final pellet was suspended in 10 volumes of 50 mM Tris-HCl, pH 7.4 and frozen at −80° C.
In vitro binding assay. After thawing, membranes from rat cortex, cerebellum, striatum and hippocampus were rehomogenized using a DUAL and suspended in ice-cold binding buffer containing 50 mM Tris-HCl, 1.2 mM MgCl2, 2 mM CaCl2, pH 7.4. The binding assay was carried out in a total volume of 0.5 ml containing 2.5 nM [^3H]Compound A and a membrane aliquot corresponding to 40 μg for cerebellar membranes, 60 μg for hippocampal membranes, 80 μg for striatal membranes or 150 μg for cortical membranes. […] After incubation for 30 min at 4° C., the labelled membranes were washed and harvested by rapid vacuum filtration over Whatman GF/C glass-fibre filters using a 40-well filtration manifold and radioactivity collected on the filters was counted as above.
Data analysis was performed using the GraphPad Prism program (GraphPad Prism Software, Inc., San Diego, Calif.). Saturation binding experiments were analysed using a non-linear regression analysis. Inhibition curves were fitted using non-linear regression analysis fitting the one-site competition equation: Y=Bottom+((Top−Bottom)/1+10^X-LogIC50). Ki values were calculated using the Cheng-Prusoff equation: Ki=IC50/[1+([C]/KD)] where C is the concentration of radioligand and KD is the dissociation constant of the radioligand (Cheng and Prusoff, Biochem. Pharmacol. 22, 3099-3108, 1973). The observed on (kob) and off (koff) rate were calculated from association-dissociation curves using the one-phase-exponential association and decay equations in the Prism program, respectively. kon was calculated by subtracting koff from kob and dividing by the radioligand concentration. The two-tailed Student's t-test was used for statistical evaluation of the binding data: * p<0.05, ** p<0.01 and *** p<0.001. The Dunnett's t-test following a 2-way analysis of variance (with as factors compound concentration and experiment) were used to analyse the data from the IP experiments.

rat mGlu1a receptor [4] = molecular target: T1, rat mGlu1a receptor; experiment: [3H]quisqualate binding to rat mGlu1a receptor CHO-dhfr− membranes (saturation, inhibition); settings: rat mGlu1a receptor CHO-dhfr− membranes
mGlu1 receptor [5] = settings: literature; cited from earlier work
mGlu1 receptor [6] = molecular target: T2, mGlu1 receptor; experiment: [3H]Compound A binding and autoradiography on rat brain sections; settings: 10 μM (FIG. 10, panel C)
Procedure: Tissue preparation. Male Wistar rats (200 g) were sacrificed by decapitation. Brains were immediately removed from the skull and were rapidly frozen in dry-ice-cooled 2-methylbutane (−40° C.). Brains were then stored at −70° C. until sectioning. Twenty-micrometer-thick sagittal sections were cut using a Leica C3050 cryostat microtome (Leica Microsystems, Wetzlar, Germany) and thaw-mounted on SuperFrost Plus microscope slides (Menzle-glaser, Germany). The sections were then kept at −70° C. until use.
Receptor autoradiography. Sections were thawed and dried under a stream of cold air, preincubated (3×5 min) in 50 mM Tris-HCl, 1.2 mM MgCl2, 2 mM CaCl2, 0.1% BSA pH 7.4 at room temperature. […] After the incubation, the excess of radioligand was washed off (3×5 min) in ice-cold buffer containing 50 mM Tris-HCl, 1.2 mM MgCl2 and 2 mM CaCl2, followed by a rapid dip in cold distilled water. The sections were dried under a stream of cold air and then exposed to [^3H]Hyperfilm (Amersham, UK) for 6 weeks at room temperature. The films were developed manually in Kodak D19 and fixed with Kodak Readymatic. Some sections were exposed to a Fuji Imaging Plate for 2 days at room temperature and scanned using a Fujix Bass 2000 phosphoimager.

C=C1C[C@@H]2COC(=O)[C@]2(Cc2ccc3ccccc3c2)C1 [BAY 36-7620, reference compound]
IC50 (rat mGlu1a receptor [1]): 161 ± 38 nM
Ki (rat mGlu1a receptor [2]; 2.5 nM [3H]Compound A, 30 min at 4° C., mean ± SD of 3–4 experiments): 11.2 ± 0.93 nM
Hill coefficient (rat mGlu1a receptor [2]; inhibition of [3H]Compound A-binding, mean ± SD of 3–4 experiments): 0.95 ± 0.02
inhibition of [3H]Compound A binding (in words) (rat mGlu1a receptor [2]; rat mGlu1a receptor CHO-dhfr− membranes): nanomolar concentrations
inhibition of [3H]Compound A binding to rat cerebellar membranes (mGlu1 receptor [3]): maximally inhibited
Ki (rat mGlu1a receptor [4]; inhibition of [3H]quisqualate binding, mean ± SD of 2 experiments): > 1 mM
effect on [3H]quisqualate binding (in words) (rat mGlu1a receptor [4]): did not affect
potency of mGlu1 receptor block (mGlu1 receptor [5]): 160 nM
inhibition of [3H]Compound A binding to rat brain sections (mGlu1 receptor [6]): completely inhibited
